{"source": "paper doi:10.1101/187716v3", "about": "(bioRxiv, 2017)", "system": "orthotopic 4T1 breast tumors", "assay": "PET-CT imaging of tumor accumulation in orthotopic 4T1 breast tumor mice", "type": "in vivo, Balb/c mice", "conditions": "scans at 10 min, 2, 6, 12, 24, 48 h", "data": [{"substance": "Cys-Tyr-Ahx-LinTT1 [LinTT1-Tyr-^124I-PS]", "values": [{"measurement": "time post injection at which tumor accumulation is seen by PET", "result": 2, "unit": "h"}]}]}
